Source: US20060009493A1, “Indolinone hydrazides as c-Met inhibitors” (Sugen, Inc., priority 2003, published 2006)

Target: T1, GST fusion protein containing the Met kinase domain (Homo sapiens, UniProt P08581)
T1 construct: Purified GST fusion protein containing the Met kinase domain, Sugen, Inc
Experiment: MET Transphosphorylation Assay (ELISA, poly(Glu,Tyr) 4:1 substrate)
Assay type: biochemical
Conditions: met transphosphorylation of poly(glutamic acid:tyrosine 4:1) substrate; two values in a cell separated by '/'
Procedure, shortened: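 Poly(Glu-Tyr)-coated wells received the GST-Met kinase domain (10 ng/well) with compound in DMSO for 15 minutes. The reaction was started with ATP/MnCl2 in HEPES pH 7.5 buffer with vanadate, run 5 minutes, and stopped with EDTA. Phosphotyrosine was detected by anti-pTyr antibody, HRP secondary and ABTS/H2O2.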

T1 sequence (P08581 1078-1345 limits assumed): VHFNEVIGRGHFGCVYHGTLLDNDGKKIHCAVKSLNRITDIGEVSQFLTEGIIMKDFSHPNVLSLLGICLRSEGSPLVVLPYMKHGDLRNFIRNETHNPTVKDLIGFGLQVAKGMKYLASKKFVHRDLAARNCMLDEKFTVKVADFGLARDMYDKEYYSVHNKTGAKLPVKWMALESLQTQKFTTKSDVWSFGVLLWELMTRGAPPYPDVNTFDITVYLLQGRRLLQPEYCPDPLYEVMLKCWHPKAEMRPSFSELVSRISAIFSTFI

(3-Chloro-4-hydroxy-phenyl)-acetic acid [(3Z)-4,7-dimethyl-2-oxo-1,2-dihydro-indol-3-ylidene]-hydrazide [II-48]
IC50: 20 nM
